≈ marks a conversion by molar mass, not a printed value.
How the values were obtained:
Test in all cases: MIC, microdilution broth method (NCCLS)
Format in all cases: cell-based
E. coli OC2605 = settings: 35° C., 16-20 hours; for MIC: Escherichia coli
Experimental: (§1) Minimal inhibitory concentration (MIC) has been an indicator of in vitro antibacterial activity widely used in the art. The in vitro antimicrobial activity of the compounds was determined by the microdilution broth method following the test method from the National Committee for Clinical Laboratory Standards (NCCLS). This method is described in the NCCLS Document M7-A4, Vol.17, No.2, “Methods for Dilution Antimicrobial Susceptibility Test for Bacteria that Grow Aerobically—Fourth Edition”, which is incorporated herein by reference.
(§2) In this method two-fold serial dilutions of drug in cation adjusted Mueller-Hinton broth are added to wells in microdilution trays. The test organisms are prepared by adjusting the turbidity of actively growing broth cultures so that the final concentration of test organism after it is added to the wells is approximately 5×10^4 CFU/well.
(§3) Following inoculation of the microdilution trays, the trays are incubated at 35° C. for 16-20 hours and then read. […] The amount of growth in the wells containing the test compound is compared with the amount of growth in the growth-control wells (no test compound) used in each tray. As set forth in Table 1, compounds of the present invention were tested against a variety of Gram positive and Gram negative pathogenic bacteria resulting in a range of activities depending on the organism tested.

E. faecalis ATCC29212 = settings: 35° C., 16-20 hours; for MIC: Enterococcus faecalis
Experimental: as §1, §2, §3

H. influenzae ATCC49247 = settings: 35° C., 16-20 hours; for MIC: Haemophilus influenzae
Experimental: as §1, §2, §3

S. aureus ATCC29213 = settings: 35° C., 16-20 hours; for MIC: Staphylococcus aureus
Experimental: as §1, §2, §3

S. pneumoniae ATCC49619 = settings: 35° C., 16-20 hours; for MIC: Streptococcus pneumoniae
Experimental: as §1, §2, §3

SMILES	MIC (μg/mL) A (E. coli OC2605)	MIC (μg/mL) C (E. faecalis ATCC29212)	MIC (μg/mL) E (H. influenzae ATCC49247)	MIC (μg/mL) B (S. aureus ATCC29213)	MIC (μg/mL) D (S. pneumoniae ATCC49619)	MIC (E. coli OC2605)	MIC (E. faecalis ATCC29212)	MIC (H. influenzae ATCC49247)	MIC (S. aureus ATCC29213)	MIC (S. pneumoniae ATCC49619)
CCC1OC(=O)C(C)C(=O)C(C)C(OC2OC(C)CC(N(C)C)C2O)C(C)(OC(N)=O)CC(C)C(=O)C(C)C2CC(=O)OC12C (stereo not shown) [Compound 1]	>16 µg/mL	2 µg/mL (≈ 3.12 µM)	>16 µg/mL	8 µg/mL (≈ 12.5 µM)	0.5 µg/mL (≈ 0.78 µM)	–	–	–	–	–
CCC1OC(=O)C(C)C(=O)C(C)C(OC2OC(C)CC(N(C)C)C2O)C(C)(OC(=O)NCc2ccc3ncccc3c2)CC(C)C(=O)C(C)C2CC(=O)OC12C (stereo not shown) [Compound 3]	>16 µg/mL	0.25 µg/mL (≈ 0.32 µM)	8 µg/mL (≈ 10.2 µM)	1 µg/mL (≈ 1.28 µM)	0.06 µg/mL (≈ 0.0767 µM)	–	–	–	–	–
CCC1OC(=O)C(C)C(=O)C(C)C(OC2OC(C)CC(N(C)C)C2O)C(C)(OC(=O)NCC=Cc2ccc(-c3ccccn3)cc2)CC(C)C(=O)C(C)C2C(OC)C(=O)OC12C (stereo not shown) [Compound 6]	>16 µg/mL	1 µg/mL (≈ 1.16 µM)	8 µg/mL (≈ 9.26 µM)	1 µg/mL (≈ 1.16 µM)	0.25 µg/mL (≈ 0.289 µM)	–	–	–	–	–
CCC1OC(=O)C(C)C(=O)C(C)C(OC2OC(C)CC(N(C)C)C2O)C(C)(OC(=O)NCC=Cc2ccc3cccnc3c2)CC(C)C(=O)C(C)C2C(OC)C(=O)OC12C (stereo not shown) [Compound 10]	>16 µg/mL	0.5 µg/mL (≈ 0.597 µM)	8 µg/mL (≈ 9.55 µM)	1 µg/mL (≈ 1.19 µM)	0.12 µg/mL (≈ 0.143 µM)	–	–	–	–	–
CCC1OC(=O)C(C)C(=O)C(C)C(OC2OC(C)CC(N(C)C)C2O)C(C)(OC(=O)N(CC=Cc2cncc(-c3ccccn3)c2)CC=Cc2cncc(-c3ccccn3)c2)CC(C)C(=O)C(C)C2CC(=O)OC12C (stereo not shown) [Compound 12]	>16 µg/mL	0.5 µg/mL (≈ 0.486 µM)	16 µg/mL (≈ 15.5 µM)	2 µg/mL (≈ 1.94 µM)	0.12 µg/mL (≈ 0.117 µM)	–	–	–	–	–
CC[C@H]1OC(=O)[C@H](C)C(=O)[C@H](C)[C@@H](O[C@@H]2O[C@H](C)C[C@H](N(C)C)[C@H]2O)[C@](C)(OC(=O)NC/C=C/c2ccc(-n3cnnc3)cc2)C[C@@H](C)C(=O)C(C)[C@H]2CC(=O)O[C@@]21C (stereo partly shown) [Compound 16]	16 µg/mL (≈ 19.4 µM)	0.25 µg/mL (≈ 0.303 µM)	4 µg/mL (≈ 4.85 µM)	0.5 µg/mL (≈ 0.607 µM)	0.06 µg/mL (≈ 0.0728 µM)	–	–	–	–	–
CC[C@H]1OC(=O)[C@H](C)C(=O)[C@H](C)[C@@H](OC2O[C@H](C)C[C@H](N(C)C)[C@H]2O)[C@](C)(OC(=O)NC/C=C/c2cn(-c3cnccn3)cn2)C[C@@H](C)C(=O)C(C)C2CC(=O)O[C@@]21C (stereo partly shown) [Compound 17]	–	–	–	–	–	> 16 µg/mL	0.12 µg/mL (≈ 0.145 µM)	4 µg/mL (≈ 4.85 µM)	0.5 µg/mL (≈ 0.606 µM)	0.06 µg/mL (≈ 0.0727 µM)
CCC1OC(=O)C(C)C(=O)C(C)C(OC2OC(C)CC(N(C)C)C2O)C(C)(OC(=O)NCc2ccc(Br)cc2)CC(C)C(=O)C(C)C2CC(=O)OC12C (stereo not shown) [Compound 20]	>16 µg/mL	0.5 µg/mL (≈ 0.617 µM)	16 µg/mL (≈ 19.8 µM)	2 µg/mL (≈ 2.47 µM)	0.12 µg/mL (≈ 0.148 µM)	–	–	–	–	–
CCC1OC(=O)C(C)C(=O)C(C)C(OC2OC(C)CC(N(C)C)C2O)C(C)(OC(=O)N(CC=Cc2ccc(Br)cc2)CC=Cc2ccc(Br)cc2)CC(C)C(=O)C(C)C2CC(=O)OC12C (stereo not shown) [Compound 23]	>16 µg/mL	2 µg/mL (≈ 1.94 µM)	>16 µg/mL	8 µg/mL (≈ 7.76 µM)	2 µg/mL (≈ 1.94 µM)	–	–	–	–	–
CCC1OC(=O)C(C)C(=O)C(C)C(OC2OC(C)CC(N(C)C)C2O)C(C)(OC(=O)NCC=Cc2ccc3ncccc3c2)CC(C)C(=O)C(C)C2CC(=O)OC12C (stereo not shown) [Compound 27]	16 µg/mL (≈ 19.8 µM)	0.06 µg/mL (≈ 0.0743 µM)	1 µg/mL (≈ 1.24 µM)	0.5 µg/mL (≈ 0.619 µM)	0.03 µg/mL (≈ 0.0371 µM)	–	–	–	–	–

Further lines, results first:

MIC (μg/mL) A (E. coli OC2605)	MIC (μg/mL) C (E. faecalis ATCC29212)	MIC (μg/mL) E (H. influenzae ATCC49247)	MIC (μg/mL) B (S. aureus ATCC29213)	MIC (μg/mL) D (S. pneumoniae ATCC49619)	MIC (E. coli OC2605)	MIC (E. faecalis ATCC29212)	MIC (H. influenzae ATCC49247)	MIC (S. aureus ATCC29213)	MIC (S. pneumoniae ATCC49619)	SMILES
>16 µg/mL	0.12 µg/mL (≈ 0.148 µM)	16 µg/mL (≈ 19.8 µM)	1 µg/mL (≈ 1.24 µM)	0.06 µg/mL (≈ 0.0742 µM)	–	–	–	–	–	CCC1OC(=O)C(C)C(=O)C(C)C(OC2OC(C)CC(N(C)C)C2O)C(C)(OC(=O)NCc2ccc(-c3cncnc3)cc2)CC(C)C(=O)C(C)C2CC(=O)OC12C (stereo not shown) [Compound 2]
>16 µg/mL	8 µg/mL (≈ 10.3 µM)	>16 µg/mL	>16 µg/mL	1 µg/mL (≈ 1.29 µM)	–	–	–	–	–	CCC1OC(=O)C(C)C(=O)C(C)C(OC2OC(C)CC(N(C)C)C2O)C(C)(OC(=O)NCc2ccc(C(=O)O)cc2)CC(C)C(=O)C(C)C2CC(=O)OC12C (stereo not shown) [Compound 4]
16 µg/mL (≈ 19.8 µM)	0.06 µg/mL (≈ 0.0743 µM)	16 µg/mL (≈ 19.8 µM)	0.5 µg/mL (≈ 0.619 µM)	0.03 µg/mL (≈ 0.0371 µM)	–	–	–	–	–	CCC1OC(=O)C(C)C(=O)C(C)C(OC2OC(C)CC(N(C)C)C2O)C(C)(OC(=O)NCC=Cc2cnc3ccccc3c2)CC(C)C(=O)C(C)C2CC(=O)OC12C (stereo not shown) [Compound 5]
–	–	–	–	–	> 16 µg/mL	0.12 µg/mL (≈ 0.144 µM)	8 µg/mL (≈ 9.58 µM)	0.25 µg/mL (≈ 0.299 µM)	0.06 µg/mL (≈ 0.0719 µM)	CC[C@H]1OC(=O)[C@H](C)C(=O)[C@H](C)[C@@H](OC2O[C@H](C)C[C@H](N(C)C)[C@H]2O)[C@](C)(OC(=O)NC/C=C/c2ccc(-c3ncccn3)cc2)C[C@@H](C)C(=O)C(C)C2CC(=O)O[C@@]21C (stereo partly shown) [Compound 7]
>16 µg/mL	0.25 µg/mL (≈ 0.299 µM)	8 µg/mL (≈ 9.58 µM)	0.5 µg/mL (≈ 0.599 µM)	0.06 µg/mL (≈ 0.0719 µM)	–	–	–	–	–	CCC1OC(=O)C(C)C(=O)C(C)C(OC2OC(C)CC(N(C)C)C2O)C(C)(OC(=O)NCC=Cc2ccc(-c3cncnc3)cc2)CC(C)C(=O)C(C)C2CC(=O)OC12C (stereo not shown) [Compound 9]
>16 µg/mL	0.12 µg/mL (≈ 0.144 µM)	4 µg/mL (≈ 4.79 µM)	0.5 µg/mL (≈ 0.599 µM)	0.06 µg/mL (≈ 0.0719 µM)	–	–	–	–	–	CCC1OC(=O)C(C)C(=O)C(C)C(OC2OC(C)CC(N(C)C)C2O)C(C)(OC(=O)NCC=Cc2cncc(-c3ccccn3)c2)CC(C)C(=O)C(C)C2CC(=O)OC12C (stereo not shown) [Compound 11]
>16 µg/mL	0.25 µg/mL (≈ 0.3 µM)	4 µg/mL (≈ 4.8 µM)	1 µg/mL (≈ 1.2 µM)	0.06 µg/mL (≈ 0.0719 µM)	–	–	–	–	–	CCC1OC(=O)C(C)C(=O)C(C)C(OC2OC(C)CC(N(C)C)C2O)C(C)(OC(=O)NCC=Cc2cccc(-c3ccccn3)c2)CC(C)C(=O)C(C)C2CC(=O)OC12C (stereo not shown) [Compound 13]
>16 µg/mL	0.5 µg/mL (≈ 0.6 µM)	8 µg/mL (≈ 9.59 µM)	2 µg/mL (≈ 2.4 µM)	0.12 µg/mL (≈ 0.144 µM)	–	–	–	–	–	CCC1OC(=O)C(C)C(=O)C(C)C(OC2OC(C)CC(N(C)C)C2O)C(C)(OC(=O)NCC=Cc2cccc(-c3cccnc3)c2)CC(C)C(=O)C(C)C2CC(=O)OC12C (stereo not shown) [Compound 14]
>16 µg/mL	0.25 µg/mL (≈ 0.3 µM)	8 µg/mL (≈ 9.59 µM)	1 µg/mL (≈ 1.2 µM)	0.12 µg/mL (≈ 0.144 µM)	–	–	–	–	–	CCC1OC(=O)C(C)C(=O)C(C)C(OC2OC(C)CC(N(C)C)C2O)C(C)(OC(=O)NCC=Cc2ccc(-c3ccccn3)cc2)CC(C)C(=O)C(C)C2CC(=O)OC12C (stereo not shown) [Compound 15]
>16 µg/mL	0.5 µg/mL (≈ 0.661 µM)	8 µg/mL (≈ 10.6 µM)	2 µg/mL (≈ 2.65 µM)	0.12 µg/mL (≈ 0.159 µM)	–	–	–	–	–	CCC1OC(=O)C(C)C(=O)C(C)C(OC2OC(C)CC(N(C)C)C2O)C(C)(OC(=O)NCC#Cc2cccnc2)CC(C)C(=O)C(C)C2CC(=O)OC12C (stereo not shown) [Compound 18]
>16 µg/mL	1 µg/mL (≈ 1.37 µM)	>16 µg/mL	16 µg/mL (≈ 21.9 µM)	0.25 µg/mL (≈ 0.342 µM)	–	–	–	–	–	CCC1OC(=O)C(C)C(=O)C(C)C(OC2OC(C)CC(N(C)C)C2O)C(C)(OC(=O)NCc2ccccc2)CC(C)C(=O)C(C)C2CC(=O)OC12C (stereo not shown) [Compound 19]
>16 µg/mL	1 µg/mL (≈ 1.2 µM)	8 µg/mL (≈ 9.6 µM)	2 µg/mL (≈ 2.4 µM)	0.25 µg/mL (≈ 0.3 µM)	–	–	–	–	–	CCC1OC(=O)C(C)C(=O)C(C)C(OC2OC(C)CC(N(C)C)C2O)C(C)(OC(=O)NCc2ccc(C=Cc3ccccc3)cc2)CC(C)C(=O)C(C)C2CC(=O)OC12C (stereo not shown) [Compound 21]
16 µg/mL (≈ 19.1 µM)	0.25 µg/mL (≈ 0.299 µM)	4 µg/mL (≈ 4.79 µM)	1 µg/mL (≈ 1.2 µM)	0.06 µg/mL (≈ 0.0718 µM)	–	–	–	–	–	CCC1OC(=O)C(C)C(=O)C(C)C(OC2OC(C)CC(N(C)C)C2O)C(C)(OC(=O)NCC=Cc2ccc(Br)cc2)CC(C)C(=O)C(C)C2CC(=O)OC12C (stereo not shown) [Compound 22]
>16 µg/mL	0.12 µg/mL (≈ 0.149 µM)	8 µg/mL (≈ 9.9 µM)	1 µg/mL (≈ 1.24 µM)	0.06 µg/mL (≈ 0.0743 µM)	–	–	–	–	–	CCC1OC(=O)C(C)C(=O)C(C)C(OC2OC(C)CC(N(C)C)C2O)C(C)(OC(=O)NCc2ccc(-c3ccccn3)cc2)CC(C)C(=O)C(C)C2CC(=O)OC12C (stereo not shown) [Compound 26]
–	–	–	–	–	16 µg/mL (≈ 19.8 µM)	0.12 µg/mL (≈ 0.149 µM)	2 µg/mL (≈ 2.48 µM)	0.25 µg/mL (≈ 0.309 µM)	–	CC[C@H]1OC(=O)[C@H](C)C(=O)[C@H](C)[C@@H](OC2O[C@H](C)C[C@H](N(C)C)[C@H]2O)[C@](C)(OC(=O)NC/C=C/c2cncc3ccccc23)C[C@@H](C)C(=O)C(C)C2CC(=O)O[C@@]21C (stereo partly shown) [Compound 30]

From US6713455B2, “6-O-carbamate-11,12-lacto-ketolide antimicrobials” (Ortho-McNeil Pharmaceutical, Inc., priority 2001, dated 2004)
